Results on 63 compounds are retold here after a melting point compilation (Tetko et al.; mined from patent text by program, amines drawn as free bases though some values may be those of a salt).

A word on the melting point: it is the temperature of the solid-liquid transition. For `CCOC(=NC(=O)Nc1ccc(Cl)cc1)N1Cc2ccccc2-c2ccccc2C1`, the melting point was 154 to 156 °C.

Take `CC(=O)OCC(O)(COC(C)=O)c1ccc(F)cc1F`: the melting point was 70.5 to 71.5 °C.

For the compound `N#Cc1ccc2nc(C(=O)NCc3cccc(OCCSc4nc[nH]n4)c3)[nH]c(=O)c2c1`, the melting point fell in the range of 195 to 198 °C.

`O=C(O)c1ccc(-c2nc(-c3ccc(Cl)cc3)cs2)cc1` returned a melting point of 284 to 285 °C.

As for `CN(C)Nc1cc(Oc2nn(C)c(C(F)(F)F)c2Cl)ccc1[N+](=O)[O-]`, the melting point was in the range of 72 to 76 °C.

As to `O=C1CC2CSc3sc(Br)cc3C2=NN1c1ccc(Cl)cc1` (stereo not drawn), the melting point was in the range of 169 to 170 °C.

The compound `O=C(O)c1cn(C2CC2)c2c(F)c(N3CCOC(CN4CCCCC4)C3)c(F)cc2c1=O` (stereo not drawn) registered a melting point of 160 to 162 °C.

Take `O=C(NCCO)c1ccc(-c2ccccn2)cc1`: the melting point is 86 to 88 °C.

In turn, `CSc1c(Cl)c(O)nn1C` displayed a melting point of 163 to 165 °C.

For the compound `Cn1cnnc1C(c1ccc(C#N)cc1)c1cc2c3c(c1)c(-c1cccc(Cl)c1)cc(=O)n3CC2` (stereo not drawn), the melting point was 174 °C.

`CC(C(=O)O)c1c(C(=O)c2ccccc2)[nH]c2cc(Cl)ccc12` (stereo not drawn) yielded a melting point of 193 to 196 °C.

The compound `COc1ccc(-c2nc3cc(F)ccc3s2)cc1OC(=O)c1cccc([N+](=O)[O-])c1` returned a melting point of 212 °C.

For the compound `Cc1nc(-c2ccc(=O)[nH]c2C)cs1`, the melting point was in the range of 188 to 190 °C.

Turning to `COC(=O)c1ccc(Cn2nc(O)c3[nH]c4cc(Cl)ccc4c(=O)c3c2=O)cc1`, the melting point was more than 290 °C.

As for `COC(=O)N(N=C(C)C)C(=O)c1ccc(Br)cc1`, the melting point fell in the range of 103 to 104 °C.

For the compound `CCOC(=O)CCNC(=O)Nc1ccccc1CCc1cc(C(C)(C)C)c(O)c(C(C)(C)C)c1`, the melting point fell in the range of 158 to 159 °C.

Compound `COc1cc2cc3c(Nc4ccc(F)c(Cl)c4)c(C#N)cnc3cc2cc1OCCN1CCOCC1` displayed a melting point of 237 to 242 °C.

In the case of `CCCN(CCC)C(=O)C(C)n1c(-c2ccc(Cl)cc2)nc2cccnc21` (stereo not drawn), the melting point fell in the range of 96 to 99 °C.

As to `O=C(c1ccc(Cc2c(Cl)cc([N+](=O)[O-])cc2Cl)cc1)c1cnc(Cl)c(Cl)c1`, the melting point was 129 to 131 °C.

Take `CCc1cccc(C)c1CNc1nc(OC)cc(NC)c1[N+](=O)[O-]`: the melting point lay in the range of 166 to 167 °C.

`CC(=O)NC(Cc1ccc(Cl)c(Cl)c1)C(=O)OCc1cc(C)cc(C)c1` (stereo not drawn) showed a melting point of 118 to 119 °C.

Turning to `CCOC(=O)CNc1ncccc1NC(=O)c1ccc(Br)cc1`, the melting point is 153 to 154 °C.

With `CNC1Oc2cc(Cl)cc(-c3ccccc3Cl)c2O1` (stereo not drawn), the melting point is more than 250 °C.

Compound `Cc1ccc(S(=O)(=O)Nc2nc(-c3cc(F)cc(C(F)(F)F)c3)cs2)cc1` yielded a melting point of 123 to 125 °C.

Regarding `Cc1ccc(I)c(CO)c1`, the melting point fell in the range of 82 to 85 °C.

In turn, `CC(C)[C@H](NC1CCCCC1)C(=O)NCCCC(c1ccc(F)cc1)c1ccc(F)cc1` displayed a melting point of 49 to 53 °C.

For `CCCCCCSc1nn2c(=O)c(Cl)c(F)nc2s1`, the melting point is 105 to 111 °C.

In turn, `COC(=O)CCCc1cc2nc(Cl)ccc2n1S(=O)(=O)c1ccc2c(c1)OCO2` had a melting point of 120 °C.

For `COc1ccc(S(=O)(=O)c2c(C(C)C)nn3ccccc23)cc1`, the melting point lay within 138 to 139 °C.

Compound `CS(=O)(=O)SCCCCC(=O)O` came in with a melting point of 69 to 71 °C.

For `CCOC(=O)C(CC(=O)c1ccc(OC)cc1)C(=O)OCC`, the melting point fell in the range of 81 to 84 °C.

`O=C(O)COc1cccc2c1CCc1sc(S(=O)(=O)C(c3cccc(F)c3)c3cccc(F)c3)nc1-2` gave a melting point of 213 to 214 °C.

`N#CCc1ccc(C(=O)C2CC2)cc1` gave a melting point of 86 to 87 °C.

Consider `CCOC(=O)c1ccc(OCCCCCCCCCCCCCCCCCCCCOc2ccc(Cl)cc2)cc1`, for which the melting point is 78 to 80 °C.

Regarding `O=C(NC1CCCCC1)Oc1ccccc1-c1ccccc1`, the melting point is 119 to 121 °C.

As to `CC(c1ccccc1)(c1ccc(O)cc1)c1ccc(O)cc1`, the melting point lay within 185 to 187 °C.

In the case of `C[Si](C)(C)c1ccc(NC(=O)NC(=O)c2c(F)cccc2F)cc1`, the melting point fell in the range of 187 to 189 °C.

With `CN(C(CCn1c(=O)[nH]c2ncccc2c1=O)C(=O)NO)S(=O)(=O)c1ccc(Oc2ccccc2)cc1` (stereo not drawn), the melting point lay within 125 to 126 °C.

`Cc1ccc(C2=CCN(CCCc3nnc4n3CCCCC4)CC2)cc1`: the melting point lay in the range of 93 to 96 °C.

Consider `CC12CCC3C(CCC4CC(O)CCC43C)C1CCC2S` (stereo not drawn), for which the melting point fell in the range of 169 to 170 °C.

In turn, `O=C(Nc1ccc2ccc(Oc3ccccc3)nc2n1)c1ccsc1` returned a melting point of 95 °C.

Turning to `CC(C)CCc1c(-c2ccc(S(C)(=O)=O)cc2)cnn(-c2cccc(Cl)c2)c1=O`, the melting point was in the range of 60 to 65 °C.

The compound `CC(C)(C)OC(=O)NCc1ccc(-n2c(-c3cccnc3N)nc3ccc(-c4cn[nH]c4)nc32)cc1` displayed a melting point of 243 to 244 °C.

The compound `OCc1conc1-c1ccc(Cl)c(Cl)c1` showed a melting point of 103 to 104 °C.

As for `O=C(OCCO)c1cc(-c2ccc(Cl)cc2)c[nH]1`, the melting point fell in the range of 128 to 130 °C.

In turn, `NCCNc1cccc2cn[nH]c12` yielded a melting point of 166 to 168 °C.

`CCc1cc(-c2cccnc2)nn1-c1ccc(NC(=O)c2cccnc2)cc1` returned a melting point of 188 to 190 °C.

As for `O=P1(c2ccc(C(F)(F)F)cc2)c2ccccc2CN1c1ccccc1` (stereo not drawn), the melting point was in the range of 187 to 189 °C.

Compound `COc1cc(C2CCN(CCO)CC2)ccc1Nc1ncc2ccc(-c3cccc(S(=O)(=O)NC(C)(C)C)c3)n2n1` showed a melting point of 220 to 224 °C.

On to `O=C(c1ccc(F)c(F)c1)N1CCC[C@H](c2nc(-c3ccccn3)no2)C1`, for which the melting point lay in the range of 135 to 137 °C.

Consider `COC(=O)[C@H]1Cc2ccc(C)cc2C(=O)[C@H](C)S1` (relative stereo), for which the melting point was in the range of 99 to 100 °C.

As to `CCOc1nc(NCc2ccco2)nc(Nc2ccc3[nH]c(-c4cccs4)nc3c2)n1`, the melting point lay within 170 to 172 °C.

As to `CCc1ccc(C#CC(C)N(O)C(N)=O)cc1` (stereo not drawn), the melting point was in the range of 142 to 144 °C.

`CC(C)c1nc(-c2cccs2)cc(-c2ccc(F)cc2)c1CO` gave a melting point of 151 to 153 °C.

In the case of `Brc1ccc2c(c1)c1cc(Br)ccc1n2-c1ccccc1`, the melting point was in the range of 163 to 164 °C.

Consider `COc1c(OC)c(O)c2c(=O)c3ccc(O)c(OC)c3[nH]c2c1OC`, for which the melting point lay in the range of 214 to 215 °C.

As to `COC(=O)c1ccccc1S(=O)(=O)N1CCC2(C=Cc3ccccc32)CC1`, the melting point is 150 to 152 °C.

In the case of `CCc1cc(CSCCNC(=C[N+](=O)[O-])NC)oc1CN(C)C`, the melting point stood at 91 °C.

`CN(CC(=O)O)C[C@@H]1CC(c2ccc(-c3ccc(N4C[C@H](Cn5ccnn5)OC4=O)cc3F)cn2)=NO1` showed a melting point of 212 to 218 °C.

As to `CC(C)(C)OC(=O)[C@@H]1CC[C@@H]2C=C[C@H]3CCN(C(=O)OC(C)(C)C)[C@@H]3C(=O)N21`, the melting point lay in the range of 147 to 149 °C.

`Cc1ccc(C(=O)N2CCOCC2)c(Nc2ccc3cn[nH]c3c2)n1` returned a melting point of 103 to 104 °C.

In turn, `CCCN(CC1CC1)c1nc(C)nc2c1c(C)c(C)n2-c1c(C)cc(C)c2nsnc12` had a melting point of 136 °C.

With `OC1C=CC2COC1O2` (stereo not drawn), the melting point lay within 65.6 to 66.4 °C.
